Numbers after ± are expanded uncertainties.
Conditions: Ring tensiometer

SMILES: O [water]
- surface tension liquid-gas (298.15 K): 72 ± 0.9 mN/m
- surface tension liquid-gas (303.15 K): 71.1 ± 0.9 mN/m
- surface tension liquid-gas (308.15 K): 70.3 ± 0.9 mN/m
- surface tension liquid-gas (313.15 K): 69.4 ± 0.9 mN/m

Reference: the NIST ThermoML archive (doi:10.1016/j.jct.2014.05.001)
